Calls of active or inactive are those of the source. How the calls were made is not given here.
System: CCRIS mutagenicity, Ames/micronucleus/aberration tests
Assay: CCRIS mutagenicity studies
[1] = Test System: AMES SALMONELLA TYPHIMURIUM, Strain/Indicator: TA98, Metabolic Activation: NONE, Method: PREINCUBATION
[2] = Test System: AMES SALMONELLA TYPHIMURIUM, Strain/Indicator: TA100, Metabolic Activation: NONE, Method: PREINCUBATION

O=Cc1ccc([N+](=O)[O-])cc1[N+](=O)[O-]
mutagenic call (Test System: AMES SALMONELLA TYPHIMURIUM, Strain/Indicator: TA98(1,8-DNP6), Metabolic Activation: NONE, Method: SUSPENSION/PLATE): active; positive | mutagenic call (Test System: AMES SALMONELLA TYPHIMURIUM, Strain/Indicator: TA98(NR), Metabolic Activation: NONE, Method: SUSPENSION/PLATE): active; positive | mutagenic call [1]: active; positive | mutagenic call (Test System: AMES SALMONELLA TYPHIMURIUM, Strain/Indicator: TA98, Metabolic Activation: NONE, Method: SUSPENSION/PLATE): active; positive | mutagenic call (Test System: AMES SALMONELLA TYPHIMURIUM, Strain/Indicator: TA98, Metabolic Activation: RAT, LIVER, S-9, PHENOBARBITAL AND 5,6-BENZOFLAVONE, Method: PREINCUBATION): active; positive | mutagenic call (Test System: AMES SALMONELLA TYPHIMURIUM, Strain/Indicator: TA100(1,8-DNP6), Metabolic Activation: NONE, Method: SUSPENSION/PLATE): active; positive | mutagenic call (Test System: AMES SALMONELLA TYPHIMURIUM, Strain/Indicator: TA100(NR), Metabolic Activation: NONE, Method: SUSPENSION/PLATE): active; positive | mutagenic call [2]: active; positive | mutagenic call (Test System: AMES SALMONELLA TYPHIMURIUM, Strain/Indicator: TA100, Metabolic Activation: NONE, Method: SUSPENSION/PLATE): active; positive | mutagenic call (Test System: AMES SALMONELLA TYPHIMURIUM, Strain/Indicator: TA100, Metabolic Activation: RAT, LIVER, S-9, PHENOBARBITAL AND 5,6-BENZOFLAVONE, Method: PREINCUBATION): active; positive

Cc1cc(=O)oc2cc(O)ccc12
mutagenic call (Test System: AMES SALMONELLA TYPHIMURIUM, Strain/Indicator: TA98, Metabolic Activation: HAMSTER, LIVER, S-9, AROCLOR 1254, Method: PREINCUBATION): inactive; negative | mutagenic call [1]: inactive; negative | mutagenic call (Test System: AMES SALMONELLA TYPHIMURIUM, Strain/Indicator: TA98, Metabolic Activation: RAT, LIVER, S-9, AROCLOR 1254, Method: PREINCUBATION): inactive; negative | mutagenic call (Test System: AMES SALMONELLA TYPHIMURIUM, Strain/Indicator: TA100, Metabolic Activation: HAMSTER, LIVER, S-9, AROCLOR 1254, Method: PREINCUBATION): inactive; negative | mutagenic call [2]: inactive; negative | mutagenic call (Test System: AMES SALMONELLA TYPHIMURIUM, Strain/Indicator: TA100, Metabolic Activation: RAT, LIVER, S-9, AROCLOR 1254, Method: PREINCUBATION): inactive; negative | mutagenic call (Test System: AMES SALMONELLA TYPHIMURIUM, Strain/Indicator: TA1535, Metabolic Activation: HAMSTER, LIVER, S-9, AROCLOR 1254, Method: PREINCUBATION): inactive; negative | mutagenic call (Test System: AMES SALMONELLA TYPHIMURIUM, Strain/Indicator: TA1535, Metabolic Activation: NONE, Method: PREINCUBATION): inactive; negative | mutagenic call (Test System: AMES SALMONELLA TYPHIMURIUM, Strain/Indicator: TA1535, Metabolic Activation: RAT, LIVER, S-9, AROCLOR 1254, Method: PREINCUBATION): inactive; negative | mutagenic call (Test System: AMES SALMONELLA TYPHIMURIUM, Strain/Indicator: TA1537, Metabolic Activation: HAMSTER, LIVER, S-9, AROCLOR 1254, Method: PREINCUBATION): inactive; negative | mutagenic call (Test System: AMES SALMONELLA TYPHIMURIUM, Strain/Indicator: TA1537, Metabolic Activation: NONE, Method: PREINCUBATION): inactive; negative | mutagenic call (Test System: AMES SALMONELLA TYPHIMURIUM, Strain/Indicator: TA1537, Metabolic Activation: RAT, LIVER, S-9, AROCLOR 1254, Method: PREINCUBATION): inactive; negative

CNc1ccccc1C(=O)OC
mutagenic call (Test System: AMES SALMONELLA TYPHIMURIUM, Strain/Indicator: TA97, Metabolic Activation: NONE, Method: PREINCUBATION): inactive; negative | mutagenic call (Test System: AMES SALMONELLA TYPHIMURIUM, Strain/Indicator: TA97, Metabolic Activation: RAT, LIVER, S-9, AROCLOR 1254, Method: PREINCUBATION): inactive; negative | mutagenic call (Test System: AMES SALMONELLA TYPHIMURIUM, Strain/Indicator: TA102, Metabolic Activation: NONE, Method: PREINCUBATION): inactive; negative | mutagenic call (Test System: AMES SALMONELLA TYPHIMURIUM, Strain/Indicator: TA102, Metabolic Activation: RAT, LIVER, S-9, AROCLOR 1254, Method: PREINCUBATION): inactive; negative | mutagenic call (Test System: UDS RODENT HEPATOCYTES, Strain/Indicator: THY INCORP (NON-S-PHASE), Metabolic Activation: NONE, Method: AUTORADIOGRAPHY): inactive; negative

Reference: PubChem BioAssay AID1259407 (Chemical Carcinogenesis Research Information System (CCRIS), 2018)
